Results from US10729135B2, “Methods of controlling pests using terpendoles” (priority 2017, dated 2020).

Tests used:
Format in all cases: in vivo
[1] = system: brown rice planthopper (Nilaparvata lugens); experiment: whole plant or invertebrate; details: Nilaparvata lugens, 144 h, 500 ppm, 3rd-4th instar, 6 DAT, read-out: Mortality score
Procedure: (§1) A bioefficacy assay utilizing terpendole C was conducted on the lepidopterans: diamondback moth (Plutella xylostella) and common cutworm (Spodoptera litura): the whitefly, tobacco whitefly (Bemisia tabaci) the thrips, western flower thrips (Frankliniella occidentalis); the planthopper, brown rice planthopper (Nilaparvata lugens); the aphids, cotton aphid (Aphis gossypii), foxglove aphid (Aulacorthum solani), cabbage aphid (Brevicoryne brassicae), birdcherry-oat aphid (Rhopalosiphum padi), green peach aphid (Myzus persicae); and the mite, two-spotted spider mite (Tetranychus urticae). Specifically, terpendole C was diluted with acetone and 5% Tween® 20 and finally diluted with water to prepare spray solutions. Terpendole C was then applied to plants as a foliar spray at 500, 200, 50, 12.5, 3.1, 1, 0.8 and/or 0.2 ppm and/or as a soil treatment at 2,500, 1,000, 250, 63, 16, 4 and/or 1 ppm. Pests were then placed on the plant or in the soil. Further, mortality and appetite suppression were recorded at 6, 7 and/or 13 days after treatment (“DAT”) and are reported in Tables 2 and 3, below, respectively.

[2] = system: foxglove aphid (Aulacorthum solani); experiment: whole plant or invertebrate
Procedure: as §1

[3] = system: cotton aphid (Aphis gossypii); experiment: whole plant or invertebrate
Procedure: as §1

[4] = system: western flower thrips (Frankliniella occidentalis); experiment: whole plant or invertebrate
Procedure: as §1

[5] = system: tobacco whitefly (Bemisia tabaci); experiment: whole plant or invertebrate
Procedure: as §1

[6] = system: common cutworm (Spodoptera litura); experiment: whole plant or invertebrate
Procedure: as §1

[7] = system: green peach aphids (Myzus persicae); experiment: LC50 biological efficacy assay on green peach aphids, aerosolized dilutions on infested radish leaves
Procedure: Biological efficacy assays utilizing terpendoles were conducted on green peach aphids (Myzus persicae). Specifically, terpendole A, terpendole C, terpendole J, terpendole K, terpendole N, terpendole O and terpendole P were each separately applied in serial dilutions to determine the concentration at which 50% control of green peach aphids occurred over a period of 24-48 hours (“LC50”). Radish leaves infested with green peach aphids were treated, top and bottom, with a total of 500 μl of an aerosolized terpendole dilution. Treated, aphid infested leaves were held in greenhouse conditions and evaluated for efficacy at 24 and 48 h.

Work on CC(C)=C[C@H]1O[C@H]2[C@H]3O[C@@]34[C@H](CC[C@@]3(C)[C@@]4(O)CC[C@H]4Cc5c([nH]c6ccccc56)[C@@]43C)O[C@@H]2C(C)(C)O1 [Terpendole C, terpendole C] yielded a mortality at 500 ppm [1] of under 29%, an Appetite suppression score ([2]; 12.5 ppm, Kidney Bean, Adult, 6 DAT) of 0 and an Appetite suppression score ([2]; 50 ppm, Kidney Bean, Adult, 6 DAT) of 0. The Appetite suppression score ([2]; 200 ppm, Kidney Bean, Adult, 6 DAT) was 0, the Appetite suppression score ([2]; 500 ppm, Kidney Bean, Adult, 6 DAT) was 2 (2 = about 25% suppression) and the mortality at 12.5 ppm ([2]; Aulacorthum solani, 144 h, 12.5 ppm, Kidney Bean, Adult, 6 DAT, read-out: Mortality score) was under 29%. For the same molecule, the mortality at 50 ppm ([2]; Aulacorthum solani, 144 h, 50 ppm, Kidney Bean, Adult, 6 DAT, read-out: Mortality score) was under 29%, the mortality at 200 ppm ([2]; Aulacorthum solani, 144 h, 200 ppm, Kidney Bean, Adult, 6 DAT, read-out: Mortality score (converted)) was 50% and the mortality at 500 ppm ([2]; Aulacorthum solani, 144 h, 500 ppm, Kidney Bean, Adult, 6 DAT, read-out: Mortality score (converted)) was 75%. The “control of foxglove aphids (in words)” value ([2]; summary of Table 2) was “effectively controlled”, the Mortality score ([3]; 12.5 ppm, Cucumber, All stages, 6 DAT) was 3-4 and the mortality at 0.2 ppm ([3]; Aphis gossypii, 144 h, 0.2 ppm, Cucumber, All stages, 6 DAT, read-out: Mortality score) was under 29%. For the same molecule, the mortality at 0.8 ppm ([3]; Aphis gossypii, 144 h, 0.8 ppm, Cucumber, All stages, 6 DAT, read-out: Mortality score (converted)) was 75%, the mortality at 3.1 ppm ([3]; Aphis gossypii, 144 h, 3.1 ppm, Cucumber, All stages, 6 DAT, read-out: Mortality score (converted)) was 90% and the mortality at 50 ppm ([3]; Aphis gossypii, 144 h, 50 ppm, Cucumber, All stages, 6 DAT, read-out: Mortality score (converted)) was 90%. For the same molecule, the mortality at 200 ppm ([3]; Aphis gossypii, 144 h, 200 ppm, Cucumber, All stages, 6 DAT, read-out: Mortality score (converted)) was 100%, the mortality at 500 ppm ([3]; Aphis gossypii, 144 h, 500 ppm, Cucumber, All stages, 6 DAT, read-out: Mortality score (converted)) was 100% and the “control of cotton aphids (in words)” value ([3]; summary of Table 2) was “effectively controlled”. For the same molecule, the Appetite suppression score ([4]; 12.5 ppm, Kidney Bean, 1st-2nd instar, 6 DAT) was 3-4, the Appetite suppression score ([4]; 50 ppm, Kidney Bean, 1st-2nd instar, 6 DAT) was 3-4 and the Appetite suppression score ([4]; 200 ppm, Kidney Bean, 1st-2nd instar, 6 DAT) was 3-4. For the same molecule, the Appetite suppression score ([4]; 500 ppm, Kidney Bean, 1st-2nd instar, 6 DAT) was 3-4, the mortality at 0.2 ppm ([4]; Frankliniella occidentalis, 144 h, 0.2 ppm, Kidney Bean, 1st-2nd instar, 6 DAT, read-out: Mortality score) was under 29% and the mortality at 0.8 ppm ([4]; Frankliniella occidentalis, 144 h, 0.8 ppm, Kidney Bean, 1st-2nd instar, 6 DAT, read-out: Mortality score) was under 29%. It also gave a mortality at 3.1 ppm ([4]; Frankliniella occidentalis, 144 h, 3.1 ppm, Kidney Bean, 1st-2nd instar, 6 DAT, read-out: Mortality score) of under 29%, a mortality at 12.5 ppm ([4]; Frankliniella occidentalis, 144 h, 12.5 ppm, Kidney Bean, 1st-2nd instar, 6 DAT, read-out: Mortality score) of under 29% and a mortality at 50 ppm ([4]; Frankliniella occidentalis, 144 h, 50 ppm, Kidney Bean, 1st-2nd instar, 6 DAT, read-out: Mortality score) of under 29%. The mortality at 200 ppm ([4]; Frankliniella occidentalis, 144 h, 200 ppm, Kidney Bean, 1st-2nd instar, 6 DAT, read-out: Mortality score) was under 29%, the mortality at 500 ppm ([4]; Frankliniella occidentalis, 144 h, 500 ppm, Kidney Bean, 1st-2nd instar, 6 DAT, read-out: Mortality score) was under 29% and the “control of the thrips (in words)” value ([4]; summary of results) was “significantly controlled”. For the same molecule, the Mortality score ([5]; 12.5 ppm, Cabbage, 1st instar, 7 DAT) was 0-2, the mortality at 0.8 ppm ([5]; Bemisia tabaci, 168 h, 0.8 ppm, Cabbage, 1st instar, 7 DAT, read-out: Mortality score) was under 29% and the mortality at 1 ppm ([5]; Bemisia tabaci, 168 h, 1 ppm, Cabbage, 1st instar, 7 DAT, read-out: Mortality score (converted)) was 50%. For the same molecule, the mortality at 3.1 ppm ([5]; Bemisia tabaci, 168 h, 3.1 ppm, Cabbage, 1st instar, 7 DAT, read-out: Mortality score (converted)) was 50%, the mortality at 50 ppm ([5]; Bemisia tabaci, 168 h, 50 ppm, Cabbage, 1st instar, 7 DAT, read-out: Mortality score) was under 29% and the mortality at 200 ppm ([5]; Bemisia tabaci, 168 h, 200 ppm, Cabbage, 1st instar, 7 DAT, read-out: Mortality score) was under 29%. The mortality at 500 ppm ([5]; Bemisia tabaci, 168 h, 500 ppm, Cabbage, 1st instar, 7 DAT, read-out: Mortality score) was under 29%, the “control of the whitefly (in words)” value ([5]; summary of results) was “significantly controlled” and the Appetite suppression score ([6]; 12.5 ppm, Cabbage, 4th instar, 6 DAT) was 4 (4 = 70-100% suppression). For the same molecule, the Appetite suppression score ([6]; 50 ppm, Cabbage, 4th instar, 6 DAT) was 4 (4 = 70-100% suppression), the Appetite suppression score ([6]; 200 ppm, Cabbage, 4th instar, 6 DAT) was 4 (4 = 70-100% suppression) and the Appetite suppression score ([6]; 500 ppm, Cabbage, 4th instar, 6 DAT) was 4 (4 = 70-100% suppression). For the same molecule, the mortality at 12.5 ppm ([6]; Spodoptera litura, 144 h, 12.5 ppm, Cabbage, 4th instar, 6 DAT, read-out: Mortality score) was under 29%, the mortality at 50 ppm ([6]; Spodoptera litura, 144 h, 50 ppm, Cabbage, 4th instar, 6 DAT, read-out: Mortality score) was under 29% and the mortality at 200 ppm ([6]; Spodoptera litura, 144 h, 200 ppm, Cabbage, 4th instar, 6 DAT, read-out: Mortality score) was under 29%. For the same molecule, the mortality at 500 ppm ([6]; Spodoptera litura, 144 h, 500 ppm, Cabbage, 4th instar, 6 DAT, read-out: Mortality score) was under 29%, the “control of common cutworm (in words)” value ([6]; either by killing the larvae or suppressing the appetite of the larvae) was “effectively controlled” and the LC50 ([7]; concentration for 50% control over 24-48 hours, infested radish leaves, 500 μl aerosolized dilution) was 20 ppm. For the same molecule, the “control of green peach aphids (in words)” value ([7]; summary of Table 1) was “effectively controlled”.
